Experimental data taken from patent US20260028354A1, “TETRAHYDRONAPHTHALENE DERIVATIVES AS ESTROGEN RECEPTOR DEGRADERS” (REGENT OF THE UNIVERSITY OF MICHIGAN, priority 2022, published 2026).

Assay: Western blot analysis for "B" compounds
Type: cell-based
Conditions: read-out: Traditional Western Degradation Potency (DC50)
How it was run: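 Compound-treated cells lysed in RIPA buffer with protease inhibitors; equal protein (BCA) run on 10% SDS-PAGE, transferred to PVDF and probed with target antibodies. Band intensities quantified by densitometry and normalized to GAPDH.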

Compound	DC50 [nM]
O=C1CCC(N2C(=O)c3cc4c(cc3C2=O)CN(C(=O)CN2CCC3(CC2)CCN(c2ccc([C@@H]5c6ccc(B(O)O)cc6CC[C@@H]5c5ccccc5)cc2)CC3)C4)C(=O)N1 (mixture of isomers) [Compound B51, ((5R,6S)-5-(4-(9-(2-(6-(2,6-dioxopiperidin-3-yl)-5,7-dioxo-3,5,6,7-tetrahydropyrrolo[3,4-f]isoindol-2(1H)-yl)-2-oxoethyl)-3,9-diazaspiro[5.5]undecan-3-yl)phenyl)-6-phenyl-5,6,7,8-tetrahydronaphthalen-2-yl)boronic acid]	> 100
O=C1CCC(N2C(=O)c3cc4c(cc3C2=O)CN(CC2CCN(CC3CN(c5ccc([C@@H]6c7ccc(O)cc7CC[C@@H]6c6ccccc6)cc5)C3)CC2)C4)C(=O)N1 (stereo partly drawn) [Compound B62, 2-(2,6-dioxopiperidin-3-yl)-6-((1-((1-(4-((1R,2S)-6-hydroxy-2-phenyl-1,2,3,4-tetrahydronaphthalen-1-yl)phenyl)azetidin-3-yl)methyl)piperidin-4-yl)methyl)-6,7-dihydropyrrolo[3,4-f]isoindole-1,3(2H,5H)-dione]	10 to 100
O=C1CCC(N2C(=O)c3cc4c(cc3C2=O)CN(CC2(F)CCN(C(=O)C3CCN(c5ccc([C@@H]6c7ccc(O)cc7CC[C@@H]6c6ccccc6)cc5)CC3)CC2)C4)C(=O)N1 (stereo partly drawn) [Compound B267, 2-(2,6-dioxopiperidin-3-yl)-6-((4-fluoro-1-(1-(4-((1R,2S)-6-hydroxy-2-phenyl-1,2,3,4-tetrahydronaphthalen-1-yl)phenyl)piperidine-4-carbonyl)piperidin-4-yl)methyl)-6,7-dihydropyrrolo[3,4-f]isoindole-1,3(2H,5H)-dione]	> 100
O=C1CCC(N2C(=O)c3cc4c(cc3C2=O)CN(C[C@H]2CC[C@H](N3CC(Nc5ccc([C@@H]6c7ccc(O)cc7CC[C@@H]6c6ccccc6)cc5)C3)CC2)C4)C(=O)N1 (stereo partly drawn) [Compound B118, 2-(2,6-dioxopiperidin-3-yl)-6-(((1R,4r)-4-(3-((4-((1R,2S)-6-hydroxy-2-phenyl-1,2,3,4-tetrahydronaphthalen-1-yl)phenyl)amino)azetidin-1-yl)cyclohexyl)methyl)-6,7-dihydropyrrolo[3,4-f]isoindole-1,3(2H,5H)-dione]	> 100
O=C1CCC(N2C(=O)c3cc4c(cc3C2=O)CN(CC(=O)N2CCC[C@H](Oc3ccc([C@@H]5c6ccc(O)cc6CC[C@@H]5c5ccc(F)cc5)cc3)C2)C4)C(=O)N1 (stereo partly drawn) [Compound B36, 2-(2,6-dioxopiperidin-3-yl)-6-(2-((S)-3-(4-((1R,2S)-2-(4-fluorophenyl)-6-hydroxy-1,2,3,4-tetrahydronaphthalen-1-yl)phenoxy)piperidin-1-yl)-2-oxoethyl)-6,7-dihydropyrrolo[3,4-f]isoindole-1,3(2H,5H)-dione]	> 100
O=C1CCC(N2C(=O)c3cc4c(cc3C2=O)CN(C2CCN(CC3CCN(c5ccc([C@@H]6c7ccc(O)cc7CC[C@@H]6c6ccc(F)cc6)cc5)CC3)CC2)C4)C(=O)N1 (stereo partly drawn) [Compound B66, 2-(2,6-dioxopiperidin-3-yl)-6-(1-((1-(4-((1R,2S)-2-(4-fluorophenyl)-6-hydroxy-1,2,3,4-tetrahydronaphthalen-1-yl)phenyl)piperidin-4-yl)methyl)piperidin-4-yl)-6,7-dihydropyrrolo[3,4-f]isoindole-1,3(2H,5H)-dione]	10 to 100
O=C1CCC(N2Cc3cc4c(cc3C2=O)CN(CC(=O)N2CCC3(C2)CN(c2ccc([C@@H]5c6ccc(O)cc6CC[C@@H]5c5ccccc5)cc2)C3)C4)C(=O)N1 (mixture of isomers) [Compound B184, 3-(6-(2-(2-(4-((1R,2S)-6-hydroxy-2-phenyl-1,2,3,4-tetrahydronaphthalen-1-yl)phenyl)-2,6-diazaspiro[3.4]octan-6-yl)-2-oxoethyl)-1-oxo-3,5,6,7-tetrahydropyrrolo[3,4-f]isoindol-2(1H)-yl)piperidine-2,6-dione]	< 10
O=C1CCC(N2C(=O)c3cc4c(cc3C2=O)CN(CC2CN(CC3CCN(c5ccc([C@@H]6c7ccc(O)cc7CC[C@@H]6c6ccc(F)cc6)cc5)CC3)C2)C4)C(=O)N1 (stereo partly drawn) [Compound B67, 2-(2,6-dioxopiperidin-3-yl)-6-((1-((1-(4-((1R,2S)-2-(4-fluorophenyl)-6-hydroxy-1,2,3,4-tetrahydronaphthalen-1-yl)phenyl)piperidin-4-yl)methyl)azetidin-3-yl)methyl)-6,7-dihydropyrrolo[3,4-f]isoindole-1,3(2H,5H)-dione]	> 100
O=C1CCC(N2C(=O)c3cc4c(cc3C2=O)CN(CC2CN(CC3CN(c5ccc([C@@H]6c7ccc(O)cc7CC[C@@H]6c6ccc(F)cc6)cc5)C3)C2)C4)C(=O)N1 (stereo partly drawn) [Compound B71, 2-(2,6-dioxopiperidin-3-yl)-6-((1-((1-(4-((1R,2S)-2-(4-fluorophenyl)-6-hydroxy-1,2,3,4-tetrahydronaphthalen-1-yl)phenyl)azetidin-3-yl)methyl)azetidin-3-yl)methyl)-6,7-dihydropyrrolo[3,4-f]isoindole-1,3(2H,5H)-dione]	> 100
O=C1CCC(N2Cc3cc4c(cc3C2=O)CN(C(=O)C2CCC(NC3CN(c5ccc([C@@H]6c7ccc(O)cc7CC[C@@H]6c6ccccc6)cc5)C3)CC2)C4)C(=O)N1 (stereo partly drawn) [Compound B108, 3-(6-(4-((1-(4-((1R,2S)-6-hydroxy-2-phenyl-1,2,3,4-tetrahydronaphthalen-1-yl)phenyl)azetidin-3-yl)amino)cyclohexane-1-carbonyl)-1-oxo-3,5,6,7-tetrahydropyrrolo[3,4-f]isoindol-2(1H)-yl)piperidine-2,6-dione]	10 to 100
O=C1CCC(N2C(=O)c3cc4c(cc3C2=O)CN(Cc2cnc(N3CC(Oc5ccc([C@@H]6c7ccc(O)cc7CC[C@@H]6c6ccccc6)cc5)C3)nc2)C4)C(=O)N1 (stereo partly drawn) [Compound B92, 2-(2,6-dioxopiperidin-3-yl)-6-((2-(3-(4-((1R,2S)-6-hydroxy-2-phenyl-1,2,3,4-tetrahydronaphthalen-1-yl)phenoxy)azetidin-1-yl)pyrimidin-5-yl)methyl)-6,7-dihydropyrrolo[3,4-f]isoindole-1,3(2H,5H)-dione]	> 100
O=C1CCC(N2C(=O)c3cc4c(cc3C2=O)CN(CC(=O)N2CCC(Oc3ccc([C@@H]5c6ccc(O)cc6CC[C@@H]5c5ccccc5)cc3)CC2)C4)C(=O)N1 (stereo partly drawn) [Compound B60, 2-(2,6-dioxopiperidin-3-yl)-6-(2-(4-(4-((1R,2S)-6-hydroxy-2-phenyl-1,2,3,4-tetrahydronaphthalen-1-yl)phenoxy)piperidin-1-yl)-2-oxoethyl)-6,7-dihydropyrrolo[3,4-f]isoindole-1,3(2H,5H)-dione]	> 100
CN(c1ccc([C@@H]2c3ccc(O)cc3CC[C@@H]2c2ccccc2)cc1)C1CN([C@H]2CC[C@H](C(=O)N3Cc4cc5c(cc4C3)C(=O)N(C3CCC(=O)NC3=O)C5=O)CC2)C1 (stereo partly drawn) [Compound B130, 2-(2,6-dioxopiperidin-3-yl)-6-((1R,4r)-4-(3-((4-((1R,2S)-6-hydroxy-2-phenyl-1,2,3,4-tetrahydronaphthalen-1-yl)phenyl)(methyl)amino)azetidin-1-yl)cyclohexane-1-carbonyl)-6,7-dihydropyrrolo[3,4-f]isoindole-1,3(2H,5H)-dione]	> 100
O=C1CCC(N2C(=O)c3cc4c(cc3C2=O)CN(CCN2CC3(CCN(c5ccc([C@@H]6c7ccc(O)cc7CC[C@@H]6c6ccccc6)cc5)CC3)C2)C4)C(=O)N1 (mixture of isomers) [Compound B197, 2-(2,6-dioxopiperidin-3-yl)-6-(2-(7-(4-((1R,2S)-6-hydroxy-2-phenyl-1,2,3,4-tetrahydronaphthalen-1-yl)phenyl)-2,7-diazaspiro[3.5]nonan-2-yl)ethyl)-6,7-dihydropyrrolo[3,4-f]isoindole-1,3(2H,5H)-dione]	10 to 100
O=C1CCC(N2Cc3cc4c(cc3C2=O)CN(C2CCN(CC3CCN(c5ccc([C@@H]6c7ccc(O)cc7CC[C@@H]6c6ccc(F)cc6)cc5)CC3)CC2)C4)C(=O)N1 (stereo partly drawn) [Compound B68, 3-(6-(1-((1-(4-((1R,2S)-2-(4-fluorophenyl)-6-hydroxy-1,2,3,4-tetrahydronaphthalen-1-yl)phenyl)piperidin-4-yl)methyl)piperidin-4-yl)-1-oxo-3,5,6,7-tetrahydropyrrolo[3,4-f]isoindol-2(1H)-yl)piperidine-2,6-dione]	< 10
O=C1CCC(N2Cc3cc4c(cc3C2=O)CN(C(=O)C2CCN(CC3CCN(c5ccc([C@@H]6c7ccc(O)cc7CC[C@@H]6c6ccccc6)cc5)CC3)CC2)C4)C(=O)N1 (stereo partly drawn) [Compound B199, 3-(6-(1-((1-(4-((1R,2S)-6-hydroxy-2-phenyl-1,2,3,4-tetrahydronaphthalen-1-yl)phenyl)piperidin-4-yl)methyl)piperidine-4-carbonyl)-1-oxo-3,5,6,7-tetrahydropyrrolo[3,4-f]isoindol-2(1H)-yl)piperidine-2,6-dione]	> 100
O=C1CCC(N2C(=O)c3cc4c(cc3C2=O)CN(CC2CCN(C(=O)C3(F)CCN(c5ccc([C@@H]6c7ccc(O)cc7CC[C@@H]6c6ccccc6)cc5)CC3)CC2)C4)C(=O)N1 (stereo partly drawn) [Compound B269, 2-(2,6-dioxopiperidin-3-yl)-6-((1-(4-fluoro-1-(4-((1R,2S)-6-hydroxy-2-phenyl-1,2,3,4-tetrahydronaphthalen-1-yl)phenyl)piperidine-4-carbonyl)piperidin-4-yl)methyl)-6,7-dihydropyrrolo[3,4-f]isoindole-1,3(2H,5H)-dione]	> 100
O=C1CCC(N2C(=O)c3cc4c(cc3C2=O)CN(CC(=O)N2CC3(C2)CN(c2ccc([C@@H]5c6ccc(O)cc6CC[C@@H]5c5ccccc5)cc2)C3)C4)C(=O)N1 (mixture of isomers) [Compound B4, 2-(2,6-dioxopiperidin-3-yl)-6-(2-(6-(4-((1R,2S)-6-hydroxy-2-phenyl-1,2,3,4-tetrahydronaphthalen-1-yl)phenyl)-2,6-diazaspiro[3.3]heptan-2-yl)-2-oxoethyl)-6,7-dihydropyrrolo[3,4-f]isoindole-1,3(2H,5H)-dione]	10 to 100
